System: P388
Test: Cytotoxicity against mouse P388 cells
Format: functional, cell-based

SMILES	IC50 [µg/mL]
COC(/C=C/C(C)=C/C=C/C(C)=C1\C(=O)C[C@H]2[C@@]3(C)CC[C@@H](O)[C@](C)(C(=O)[O-])[C@@H]3CC[C@]12C)C(C)(C)O.[Na+] (some centres undefined) [GLOBOSTELLATIC ACID D]	0.1
COC(/C=C/C(C)(C)O)/C(C)=C/C=C/C(C)=C1\C(=O)C[C@H]2[C@@]3(C)CC[C@@H](OC(C)=O)[C@](C)(C(=O)[O-])[C@@H]3CC[C@]12C.[Na+] (some centres undefined) [GLOBOSTELLATIC ACID B]	0.1
COC(/C=C/C(C)=C/C=C/C(C)=C1\C(=O)C[C@H]2[C@@]3(C)CC[C@@H](OC(C)=O)[C@](C)(C(=O)[O-])[C@@H]3CC[C@]12C)C(C)(C)O.[Na+] (some centres undefined) [GLOBOSTELLATIC ACID C]	0.46
CC(=O)O[C@@H]1CC[C@@]2(C)[C@@H](CC[C@]3(C)/C(=C(\C)C(=O)/C=C/C(C)=C/C=C/C(C)(C)O)C(=O)C[C@@H]23)[C@@]1(C)C(=O)[O-].[Na+] [GLOBOSTELLATIC ACID A]	0.1
